Counter-ions that a name gives are not always drawn.
Key:
[1] = Solubility with acetone as solvent; format: physicochemical; settings: acetone as the solvent; concentrations higher than 500 μM could not be tested
prolyl hydroxylase = test: Prolyl hydroxylase activity in extracts of treated human skin fibroblasts (Example 1, tritium-release assay); format: cell-based; settings: cultured fibroblasts, 72 h, Example 1
Protocol: (§1) Cultures of human skin fibroblasts grown to confluence were incubated for 72 h in medium supplemented with 1% ethanol containing various concentrations of minoxidil or deoxyminoxidil as indicated. Cells were then harvested, and the enzyme activities in extracts of these cells were measured by tritium-release assays (Murad and Pinnell, J. Biol. Chem. 262:11,973 (1987)). The results are expressed as percentages of zero-concentration values.
as §1, with “with 1% acetone containing various concentrations of minoxidil sulfate,” for “deoxyminoxidil”, “tritium release” for “tritium-release”
(§2) Skin fibroblast cultures derived from an apparently normal child (GM05659) were obtained from the Institute for Medical Research, Camden, N.J. The cells were subcultured by trypsinization and used before 25 population doublings. Typically, 4×10^5 cells were seeded onto 100-mm (diameter) plastic petri dishes and allowed to grow in 10 ml of Dulbecco's modified Eagle's minimum essential medium containing 5.6 mM glucose, buffered in pH 7.4 with 24 mM sodium biocarbonate/25 mM Hepes and supplemented with 20% (v/v) calf serum which had been inactivated for 30 min at 56° C. The cells were incubated at 37° C. in a humidified atmosphere of 5% CO2 plus 95% air.
(§3) After a week, the medium was replaced with medium supplemented with 0.5% heat-inactivated diaylzed calf serum, and the incubation was continued for 72 h in the presence of minoxidil or one of its structural analogs. The compounds were dissolved in 95% ethanol, except minoxidil sulfate which was dissolved in acetone; the final solvent concentration was 1% (v/v). During the last 3 h of incubation, cells received 100 μM Na L-ascorbate to ensure complete hydroxylation of the polypeptide precursors of precollagen (Murad et al, J. Invest. Dermatol. 75:404 (1980)).
The medium was then removed and the cells were washed twice with a solution containing 0.14 M NaCl, 5 mM KCl, 0.3 mM Na2 PO4, and 0.4 mM KH2 PO4, adjusted to pH 7.4. […] The trypsinization was terminated with 2 vol of 20% serum-supplemented medium, and the cell number in an aliquot of the suspension was determined using a Coulter counter. […]
(§4) The protein content of cell extracts was determined by a dye-binding technique using Bio-Rad reagent and protein standard (Bradford, Anal. Biochem. 72:248 (1976)).

lysyl hydroxylase [2] = test: Lysyl hydroxylase activity in extracts of treated human skin fibroblasts (Example 1, tritium-release assay); format: cell-based; settings: cultured fibroblasts, 72 h, Example 1
Protocol: as §1
as §1, with “with 1% acetone containing various concentrations of minoxidil sulfate,” for “deoxyminoxidil”, “tritium release” for “tritium-release”
as §2, §3
The medium was then removed and the cells were washed twice with a solution containing 0.14 M NaCl, 5 mM KCl, 0.3 mM Na2 PO4, and 0.4 mM KH2 PO4, adjusted to pH 7.4. The cells were detached from the plates with a solution containing 0.05% trypsin, 0.54 mM EDTA, 5.5mM glucose, 6.90mM NaHCO3, […], and 5 mM KCl. The trypsinization was terminated with 2 vol of 20% serum-supplemented medium, and the cell number in an aliquot of the suspension was determined using a Coulter counter.
The detached cells were collected by centrifugation at 500g for 6 min at 4° C. washed twice by suspending in phosphate-buffered NaCl/KCl as above, and then centrifuged. The cell pellet was suspended in a medium (1 ml/5×10^6 cells) containing 0.2 M NaCl, 0.1 M glycine, 50 μM dithiothreitol, 20 mM Tris-HCl, buffer (pH 7.5), 0.1% Triton X-100, and 0.01% soybean trypsin inhibitor. The suspension was sonicated for 30 s using a Branson sonifier cell disrupter. The lysate was centrifuged at 27,000g for 1 h at 4° C., and the resulting supernatant was used for prolyl and lysyl hydroxylase assays (Murad and Pinnell, J. Biol. Chem. 262:11, 973 (1987)). The enzyme activities are based on a unit of soluble cell protein.
as §4
Note: Cultures of human skin fibroblasts grown to confluence were
incubated for 72 h in medium supplemented with 1% ethanol containing 1 mM
of the indicated compounds. Cells were then harvested, and the enzyme
activity in extracts of these cells was measured by a tritiumrelease
incubated for 72 h in medium supplemented with 1% ethanol containing 1 nM

lysyl hydroxylase [3] = target: T1, lysyl hydroxylase (Homo sapiens, UniProt Q02809); test: Direct inhibition of enzyme activity in vitro / mixing experiments with cell extracts; format: biochemical
T1 sequence (Q02809 19-727): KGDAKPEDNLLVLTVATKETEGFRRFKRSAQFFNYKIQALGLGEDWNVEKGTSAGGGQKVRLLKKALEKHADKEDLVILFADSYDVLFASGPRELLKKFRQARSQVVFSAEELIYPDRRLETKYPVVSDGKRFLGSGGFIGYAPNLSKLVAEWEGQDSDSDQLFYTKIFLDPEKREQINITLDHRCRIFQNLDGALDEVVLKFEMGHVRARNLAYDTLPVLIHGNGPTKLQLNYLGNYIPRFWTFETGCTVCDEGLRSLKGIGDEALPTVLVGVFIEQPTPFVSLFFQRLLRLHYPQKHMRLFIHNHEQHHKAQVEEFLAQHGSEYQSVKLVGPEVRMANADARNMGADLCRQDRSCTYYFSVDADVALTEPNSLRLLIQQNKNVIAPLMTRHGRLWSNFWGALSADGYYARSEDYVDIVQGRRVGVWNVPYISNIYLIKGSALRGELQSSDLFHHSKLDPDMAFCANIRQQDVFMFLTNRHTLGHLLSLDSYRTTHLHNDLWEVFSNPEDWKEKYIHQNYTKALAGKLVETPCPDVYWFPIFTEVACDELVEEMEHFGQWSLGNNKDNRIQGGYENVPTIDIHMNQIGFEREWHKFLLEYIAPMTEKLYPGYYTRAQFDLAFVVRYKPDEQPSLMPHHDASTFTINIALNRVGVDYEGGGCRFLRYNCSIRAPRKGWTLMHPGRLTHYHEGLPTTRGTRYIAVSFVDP

solubility (in words) [1]: limited solubility
effect on prolyl hydroxylase activity (in words) (prolyl hydroxylase): no change in prolyl hydroxylase activity
SMILES: Nc1cc(N2CCCCC2)nc(N)[n+]1OS(=O)(=O)[O-] [Minoxidil sulfate]
effect on lysyl hydroxylase activity (in words) (lysyl hydroxylase [2]): suppressed lysyl hydroxylase activity in a manner almost identical to that observed with minoxidil
inhibition of lysyl hydroxylase activity in vitro (in words) (lysyl hydroxylase [3]): failed to inhibit lysyl hydroxylase activity in vitro

— patent US5328913A, “Minoxidil analogs as inhibitors of cell proliferation and lysyl hydroxylase” (priority 1992, dated 1994)
